Results as given in patent US12582720B2, “Compound for preventing or treating lipid metabolism-related diseases” (Fudan University, priority 2020, dated 2026).

Key:
[1] = system: lipid droplets in SH-SY5Y cells; assay: Reduction of OA-induced lipid droplets in SH-SY5Y cells; format: cell-based, human; conditions: unconjugated compound 5 μM
Excerpt: The reduction of lipid droplets in SH-SY5Y cells by Compound 1A and Compound 2A was detected by a method that was similar to Example 2, and the result was shown in FIG. 18.
The effects of unconjugated LC3 binding Compound A1, A5 and unconjugated lipid droplet probe ORBB […] respectively on lipid droplets in SH-SY5Y cells (FIG. 20A) and MEF cells (FIG. 20B) were detected by a method similar to Example 2.

[2] = system: lipid droplets in 3T3-L1 fat precursor cell differentiated fat cells; assay: Lipid droplets in 3T3-L1 fat precursor cell differentiated fat cells; format: cell-based, mouse; conditions: 3T3-L1 differentiated fat cells, 5 μM, 24 h
[3] = system: autophagosome-lipid droplet colocalization in MEF cells; assay: Colocalization of autophagosome and lipid droplets in mCherry-LC3B transfected MEF cells; format: cell-based, mouse; conditions: 5 μM, 3 h, compared to DMSO control
Outline: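 mCherry-LC3B expressed in MEF cells by plasmid transfection; lipid droplets induced with OA at 30 h post-transfection, compound added 6 h later for 3 h. Cells fixed, stained with BODIPY and DAPI, and LC3 puncta around lipid droplets imaged by confocal microscopy.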

LC3 = LC3 (Homo sapiens, UniProt Q9GZQ8); conditions: reported by Li et al., Nature 575, 203-209 (2019); cited from earlier work
LC3B = LC3B (Homo sapiens, UniProt Q9GZQ8); assay: OI-RD detection of affinity activity with LC3B; format: binding; design: Gly-Gly (two glycines added in place of the start Met); His8 (followed by TEV site) (N, cleaved yes); GST (from the pGEX-6P1 backbone) (N, cleaved yes); made in house; host or cells: Escherichia coli BL21(DE3)pLysS; conditions: LC3B 238 nM, read-out: Kd (nM), equilibrium dissociation constant of affinity reaction between the compound and LC3B detected by OI-RD
Description: Each compound was dot printed 3 copies. The compounds that not fixed on surface of the chips were washed, and the chips were sealed and cleaned. OI-RD microscope was used to scan the images. […] The chips were washed and scanned. OI-RD images before, during and after incubation with target protein were obtained. The signal change in real-time dynamic change image was analyzed, and the signal was collected once per 10 millisecond.

Compound: O=C1Nc2ccc(I)cc2C1=Cc1cc(Br)c(O)c(Br)c1 [Compound A1, 3-(3,5-dibromo-4-hydroxylbenzylidene)-5-iodoindolin-2-one, reference compound]
- lipid droplets (number and size) [1]: did not significantly decrease or become smaller
- amount/size of lipid droplets [2]: no significant effect
- ratio of colocalization of red and green aggregation point (autophagosome-lipid droplet) [3]: No such effect
- binding to LC3 (LC3): can bind to LC3 with affinity
- Kd (LC3B): 468 nM
